Results from ChEMBL document CHEMBL1201862, “PubChem BioAssay data set” (2004).
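Values below derive from 48-hour exposures of cells grown in 96-well plates, with endpoints linearly interpolated between the two concentrations bracketing the appropriate inhibition level. Here, GI50 denotes the concentration required for 50% inhibition of growth.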 Active and inactive are the calls of the source. Cut-off read from the data, not from the text of the source: active = GI50 up to about 1.1 µM and inactive = higher.

Key:
Experiment in all cases: NCI anticancer screen, dose series, 48 h
UACC-62 = system: UACC-62
CCRF-CEM = system: CCRF-CEM
HT-29 = system: HT-29
SK-MEL-5 = system: SK-MEL-5
LOX IMVI = system: LOX IMVI
SNB-75 = system: SNB-75
UO-31 = system: UO-31
SF-539 = system: SF-539
786-0 = system: 786-0
CAKI-1 = system: CAKI-1
OVCAR-8 = system: OVCAR-8
SW-620 = system: SW-620
U-251 = system: U-251
SF-268 = system: SF-268
SK-MEL-2 = system: SK-MEL-2
SR = system: SR

Measured: GI50

CS/C(=N/C(=O)c1ccccc1)SCCS/C(=N\C(=O)c1ccccc1)SC
inactive: UACC-62 > 100 µM | CCRF-CEM > 100 µM | HT-29 > 100 µM | SK-MEL-5 > 100 µM | LOX IMVI > 100 µM | SNB-75 33.8 µM | UO-31 > 100 µM | SF-539 65.5 µM | 786-0 > 100 µM | CAKI-1 > 100 µM | OVCAR-8 > 100 µM | SW-620 > 100 µM | U-251 > 100 µM | SF-268 > 100 µM | SK-MEL-2 > 100 µM

C=CCNC(=O)ON1C(=O)CCC1=O
inactive: UACC-62 > 100 µM | CCRF-CEM > 100 µM | HT-29 > 100 µM | LOX IMVI > 100 µM | SNB-75 > 100 µM | UO-31 > 100 µM | SF-539 > 100 µM | 786-0 > 100 µM | OVCAR-8 > 100 µM | SW-620 > 100 µM | U-251 > 100 µM | SF-268 > 100 µM | SK-MEL-2 > 100 µM

O=C1CCCCC1CN1CCCC1 (stereo not drawn)
inactive: CCRF-CEM 65.6 µM | SR 38.7 µM | HT-29 > 100 µM | SK-MEL-5 > 100 µM | LOX IMVI > 100 µM | SNB-75 > 100 µM | 786-0 > 100 µM | OVCAR-8 > 100 µM | SW-620 > 100 µM | U-251 > 100 µM | SF-268 > 100 µM | SK-MEL-2 > 100 µM

O=C1c2ccccc2C2(O)c3cc4ccccc4cc3OC12O (stereo not drawn)
inactive: UACC-62 47.2 µM | CCRF-CEM 47.2 µM | HT-29 > 100 µM | SK-MEL-5 30.1 µM | LOX IMVI 68.5 µM | SNB-75 49.3 µM | SF-539 > 100 µM | 786-0 > 100 µM | CAKI-1 62.7 µM | OVCAR-8 58.1 µM | SW-620 > 100 µM | U-251 54.7 µM | SF-268 87.7 µM | SK-MEL-2 47.3 µM

CC(=O)NN1C(=O)C(Cc2ccccc2)c2ccccc21 (stereo not drawn)
inactive: UACC-62 > 100 µM | CCRF-CEM > 100 µM | HT-29 > 100 µM | SK-MEL-5 > 100 µM | LOX IMVI > 100 µM | SNB-75 > 100 µM | UO-31 > 100 µM | SF-539 > 100 µM | 786-0 > 100 µM | CAKI-1 > 100 µM | OVCAR-8 > 100 µM | SW-620 > 100 µM | U-251 > 100 µM | SF-268 > 100 µM | SK-MEL-2 > 100 µM

CC(=O)O[C@H]1CCC2[C@@H]3CCC4C(=O)c5oncc5C[C@]4(C)C3CC[C@@]21C (stereo partly drawn)
inactive: UACC-62 60.3 µM | CCRF-CEM > 100 µM | HT-29 > 100 µM | SK-MEL-5 > 100 µM | LOX IMVI 28 µM | SNB-75 50.2 µM | UO-31 > 10 µM | SF-539 > 10 µM | 786-0 > 100 µM | OVCAR-8 > 100 µM | SW-620 > 100 µM | U-251 > 100 µM | SF-268 > 100 µM | SK-MEL-2 > 100 µM

Cc1ccc(Sc2cc([N+](=O)[O-])cc(Sc3ccc(C)cc3)c2Sc2ccc(C)cc2)cc1
inactive: UACC-62 > 100 µM | CCRF-CEM 27.2 µM | HT-29 > 100 µM | SK-MEL-5 > 100 µM | LOX IMVI > 100 µM | SNB-75 53.5 µM | UO-31 > 100 µM | SF-539 > 100 µM | 786-0 51.6 µM | CAKI-1 > 100 µM | OVCAR-8 74.6 µM | SW-620 > 100 µM | U-251 46.5 µM | SF-268 > 100 µM | SK-MEL-2 > 100 µM

CC(C)c1cccc(C(C)C)c1N1C(=O)C(=O)C(c2nc3ccccc3o2)C(=O)C1=O
inactive: UACC-62 71.6 µM | CCRF-CEM 8.95 µM | HT-29 30.3 µM | SK-MEL-5 38.5 µM | LOX IMVI > 100 µM | SNB-75 26.2 µM | UO-31 94 µM | SF-539 > 100 µM | 786-0 14.4 µM | CAKI-1 40.5 µM | OVCAR-8 > 100 µM | SW-620 48.1 µM | U-251 > 100 µM | SF-268 47.2 µM | SK-MEL-2 > 100 µM

N/C(=N\O)N/N=C\c1c2ccccc2c(Cl)c2ccccc12
inactive: UACC-62 1.92 µM | CCRF-CEM 5.77 µM | HT-29 3.78 µM | SK-MEL-5 5 µM | LOX IMVI 2.55 µM | SNB-75 12.7 µM | UO-31 10.7 µM | SF-539 9.62 µM | 786-0 12.6 µM | CAKI-1 5.52 µM | OVCAR-8 4.08 µM | SW-620 5.22 µM | U-251 7.5 µM | SF-268 7.5 µM | SK-MEL-2 10.5 µM

Nc1ccc(C(=O)NN2C(=O)C(Cl)C2c2ccccc2)cc1 (stereo not drawn)
inactive: UACC-62 > 100 µM | CCRF-CEM > 100 µM | HT-29 > 100 µM | SK-MEL-5 > 100 µM | LOX IMVI > 100 µM | SNB-75 > 100 µM | UO-31 > 100 µM | SF-539 > 100 µM | 786-0 > 100 µM | CAKI-1 > 100 µM | OVCAR-8 > 100 µM | SW-620 > 100 µM | U-251 > 100 µM | SF-268 > 100 µM | SK-MEL-2 > 100 µM
